In patent publication US8513270B2, “Substituted heterocycles as Janus kinase inhibitors” (Incyte Corporation, priority 2006, dated 2013):
pIC50: −log10 of the molar value. Structures can show the parent of a compound that is named as a salt.

Tests used:
[1] = target: T1, human JAK2 (a.a. 828-1132) (Homo sapiens, UniProt O60674); assay: In vitro JAK kinase assay (HTRF), JAK2; assay type: biochemical; conditions: JAK2, 30 μM ATP; read-out: EXAMPLE A HTS-JAK2 HTRF-2 IC50
T1 construct: JAK2 (a.a. 828-1132); His tag (N); made in house; host or cells: insect cells (baculovirus)
T1 sequence (O60674 828-1132): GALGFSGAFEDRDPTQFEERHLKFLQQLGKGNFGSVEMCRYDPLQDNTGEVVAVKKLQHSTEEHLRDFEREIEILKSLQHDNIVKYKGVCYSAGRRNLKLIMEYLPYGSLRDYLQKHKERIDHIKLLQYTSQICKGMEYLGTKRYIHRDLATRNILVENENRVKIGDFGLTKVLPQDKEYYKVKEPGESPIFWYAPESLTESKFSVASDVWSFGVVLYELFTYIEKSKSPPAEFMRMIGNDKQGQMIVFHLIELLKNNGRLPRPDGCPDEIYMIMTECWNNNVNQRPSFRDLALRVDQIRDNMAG
Protocol: (§1) Compounds herein were tested for inhibitory activity of JAK targets according to the following in vitro assay described in Park et al., Analytical Biochemistry 1999, 269, 94-104. The catalytic domains of human JAK1 (a.a. 837-1142), JAK2 (a.a. 828-1132) and JAK3 (a.a. 781-1124) with an N-terminal His tag were expressed using baculovirus in insect cells and purified. The catalytic activity of JAK1, JAK2 or JAK3 was assayed by measuring the phosphorylation of a biotinylated peptide. The phosphorylated peptide was detected by homogenous time resolved fluorescence (HTRF). IC50s of compounds were measured for each kinase in the reactions that contain the enzyme, ATP and 500 nM peptide in 50 mM Tris (pH 7.8) buffer with 100 mM NaCl, 5 mM DTT, and 0.1 mg/mL (0.01%) BSA. The ATP concentration in the reactions was 90 μM for JAK1, 30 μM for JAK2 and 3 μM for JAK3. Reactions were carried out at room temperature for 1 hr and then stopped with 20 μL 45 mM EDTA, 300 nM SA-APC, 6 nM Eu—Py20 in assay buffer (Perkin Elmer, Boston, Mass.). Binding to the Europium labeled antibody took place for 40 minutes and HTRF signal was measured on a Fusion plate reader (Perkin Elmer, Boston, Mass.).

[2] = system: JAK2_INA61 (cancer cell line dependent on cytokines and JAK/STAT signal transduction); assay: Cellular assay: viability of cytokine-dependent cancer cell line (CellTiter-Glo); assay type: cell-based; conditions: 72 hours, read-out: EXAMPLE B JAK2_INA61 IC50
Protocol: One or more compounds herein were tested for inhibitory activity of JAK targets according to at least one of the following cellular assays.
Compounds were added to the cells in DMSO/media (final concentration 0.2% DMSO) and incubated for 72 hours at 37° C., 5% CO2. The effect of compound on cell viability was assessed using the CellTiter-Glo Luminescent Cell Viability Assay (Promega) followed by TopCount (Perkin Elmer, Boston, Mass.) quantitation. Potential off-target effects of compounds were measured in parallel using a non-JAK driven cell line with the same assay readout. […] All experiments were performed in duplicate.

[3] = target: T2, human JAK1 (a.a. 837-1142) (Homo sapiens, UniProt P23458); assay: In vitro JAK kinase assay (HTRF), JAK1; assay type: biochemical; conditions: JAK1, 90 μM ATP; read-out: EXAMPLE A JAK2-JAK1 HTRF-2 IC50
T2 construct: human JAK1 (a.a. 837-1142); His tag (N); made in house; host or cells: insect cells (baculovirus)
T2 sequence (P23458 849-1154): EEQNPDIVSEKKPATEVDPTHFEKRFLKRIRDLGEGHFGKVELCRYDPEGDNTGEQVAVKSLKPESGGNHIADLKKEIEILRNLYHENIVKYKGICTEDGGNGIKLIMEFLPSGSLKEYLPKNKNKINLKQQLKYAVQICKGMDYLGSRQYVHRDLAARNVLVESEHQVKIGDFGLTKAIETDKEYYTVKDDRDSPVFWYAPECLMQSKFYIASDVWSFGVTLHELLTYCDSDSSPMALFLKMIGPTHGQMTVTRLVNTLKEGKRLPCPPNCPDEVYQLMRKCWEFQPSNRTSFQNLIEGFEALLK
Protocol: as §1

[4] = target: T3, human JAK3 (a.a. 781-1124) (Homo sapiens, UniProt P52333); assay: In vitro JAK kinase assay (HTRF), JAK3; assay type: biochemical; conditions: JAK3, 3 μM ATP; read-out: EXAMPLE A JAK2-JAK3 HTRF-2 IC50
T3 construct: JAK3 (a.a. 781-1124); His tag (N); made in house; host or cells: insect cells (baculovirus)
T3 sequence (P52333 781-1124): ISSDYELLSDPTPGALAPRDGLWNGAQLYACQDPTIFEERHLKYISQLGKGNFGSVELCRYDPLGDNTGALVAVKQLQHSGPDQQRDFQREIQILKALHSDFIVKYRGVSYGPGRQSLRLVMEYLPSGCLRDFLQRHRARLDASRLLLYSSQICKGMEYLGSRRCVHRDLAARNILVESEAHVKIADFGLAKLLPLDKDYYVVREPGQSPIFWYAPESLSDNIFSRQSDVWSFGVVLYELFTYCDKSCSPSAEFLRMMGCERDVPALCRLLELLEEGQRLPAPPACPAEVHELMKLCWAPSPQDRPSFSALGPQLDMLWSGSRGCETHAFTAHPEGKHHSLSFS
Protocol: as §1

TF1-BCRABL1 cells = TF1-BCRABL1 cells (Homo sapiens, UniProt P00519); assay: ABL1 cell based assay: viability of ABL1-dependent cell line (CellTiter-Glo); conditions: 72 hours, cell viability; read-out: EXAMPLE F JAK2-TF1-BCRABL1 IC50
Chain of TF1-BCRABL1 cells (P00519 whole entry, change not shown): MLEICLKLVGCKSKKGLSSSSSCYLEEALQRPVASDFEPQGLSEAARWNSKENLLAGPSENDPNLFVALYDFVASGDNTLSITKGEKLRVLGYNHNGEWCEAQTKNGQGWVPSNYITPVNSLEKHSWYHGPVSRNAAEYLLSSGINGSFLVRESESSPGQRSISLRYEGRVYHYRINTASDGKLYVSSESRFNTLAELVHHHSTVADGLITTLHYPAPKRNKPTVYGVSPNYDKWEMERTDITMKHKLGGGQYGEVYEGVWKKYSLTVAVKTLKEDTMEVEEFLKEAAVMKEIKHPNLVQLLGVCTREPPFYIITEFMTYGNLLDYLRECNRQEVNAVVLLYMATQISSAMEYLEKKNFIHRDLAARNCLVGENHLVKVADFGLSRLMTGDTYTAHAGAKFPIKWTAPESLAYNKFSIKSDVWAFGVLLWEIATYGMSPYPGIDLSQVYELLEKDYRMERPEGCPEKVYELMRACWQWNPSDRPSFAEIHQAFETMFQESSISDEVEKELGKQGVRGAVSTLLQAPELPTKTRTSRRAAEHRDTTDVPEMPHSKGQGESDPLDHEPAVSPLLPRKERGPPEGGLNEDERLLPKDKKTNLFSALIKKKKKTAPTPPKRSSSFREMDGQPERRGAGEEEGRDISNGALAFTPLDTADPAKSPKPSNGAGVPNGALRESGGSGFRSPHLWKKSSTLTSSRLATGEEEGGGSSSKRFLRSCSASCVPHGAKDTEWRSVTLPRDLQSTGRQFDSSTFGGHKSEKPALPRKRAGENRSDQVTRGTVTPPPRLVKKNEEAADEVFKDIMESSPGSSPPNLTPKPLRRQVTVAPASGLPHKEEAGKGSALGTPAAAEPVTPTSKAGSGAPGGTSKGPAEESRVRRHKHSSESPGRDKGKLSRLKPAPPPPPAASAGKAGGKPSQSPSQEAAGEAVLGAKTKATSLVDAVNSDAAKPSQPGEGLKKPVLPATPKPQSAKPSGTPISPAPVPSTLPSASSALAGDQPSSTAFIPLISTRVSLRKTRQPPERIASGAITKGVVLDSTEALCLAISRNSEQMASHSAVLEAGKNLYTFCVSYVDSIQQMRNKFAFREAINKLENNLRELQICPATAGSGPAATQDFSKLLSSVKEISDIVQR
Protocol: One or more compounds herein were tested for inhibitory activity of ABL1 targets according to at least one of the following cellular assays.
Cancer cell lines dependent on ABL1 kinase activity for proliferation and/or survival were plated at 3000 cells per well (96 well plate format) in RPMI 1640, and 10% FBS. Compounds were added to the cells in DMSO/media (final concentration 0.2% DMSO) and incubated for 72 hours at 37° C., 5% CO2. The effect of compound on cell viability was assessed using the CellTiter-Glo Luminescent Cell Viability Assay (Promega) followed by TopCount (Perkin Elmer, Boston, Mass.) quantitation. ABL1-dependent cell lines can include those naturally dependent on ABL1 activity or those engineered to be dependent on ABL1 activity (e.g. BaF/3 cells). The latter can be generated using wild-type ABL1 or mutant ABL1 (such as T315I ABL1) so that the activity of compounds can be assessed against different variants of the ABL1 kinase. Potential off-target effects of compounds were measured in parallel using a non-ABL1 driven cell line with the same assay readout. […] All experiments were performed in duplicate or greater.

| SMILES | pIC50 [1] | pIC50 [2] | pIC50 [3] | pIC50 [4] | GI50 (TF1-BCRABL1 cells) [nM] |
| --- | --- | --- | --- | --- | --- |
| Cc1ccc(NC(=O)c2cccc(C(F)(F)F)c2)cc1-c1ccc2c(c1)[nH]c1ncncc12 [Example 1, N-[4-Methyl-3-(9H-pyrimido[4,5-b]indol-7-yl)phenyl]-3-(trifluoromethyl)benzamide trifluoroacetate] | ≥ 6.30 | ≥ 6.30 | ≥ 6.30 | ≥ 6.30 | ≤ 500 |
| Cc1cn(-c2cc(C(=O)Nc3ccc(C)c(-c4ccc5c(c4)[nH]c4ncncc45)c3)cc(C(F)(F)F)c2)cn1 [Example 2, 3-(4-Methyl-1H-imidazol-1-yl)-N-[4-methyl-3-(9H-pyrimido[4,5-b]indol-7-yl)-phenyl]-5-(trifluoromethyl)benzamide bis(trifluoroacetate)] | ≥ 6.30 | 6.00 to 6.30 | ≥ 6.30 | ≥ 6.30 | ≤ 500 |
| Cc1ccc(NC(=O)c2cccc(C(F)(F)F)c2F)cc1-c1ccc2c(c1)[nH]c1ncncc12 [Example 3, 2-fluoro-N-[4-methyl-3-(9H-pyrimido[4,5-b]indol-7-yl)-phenyl]-3-(trifluoromethyl)-benzamide] | ≥ 6.30 | ≥ 6.30 | ≥ 6.30 | ≥ 6.30 | ≤ 500 |
| Cc1ccc(NC(=O)c2cccc(F)c2)cc1-c1ccc2c(c1)[nH]c1ncncc12 [Example 6, 3-fluoro-N-[4-methyl-3-(9H-pyrimido[4,5-b]indol-7-yl)-phenyl]benzamide] | ≥ 6.30 | 6.00 to 6.30 | ≥ 6.30 | ≥ 6.30 | ≤ 500 |
| Cc1ccc(NC(=O)c2cc(C(F)(F)F)ccc2C(F)(F)F)cc1-c1ccc2c(c1)[nH]c1ncncc12 [Example 7, N-[4-methyl-3-(9H-pyrimido[4,5-b]indol-7-yl)phenyl]-2,5-bis(trifluoromethyl)benzamide] | < 6.00 | < 6.00 | ≥ 6.30 | ≥ 6.30 | 500 to 1000 |
| COc1cccc(C(=O)Nc2ccc(C)c(-c3ccc4c(c3)[nH]c3ncncc34)c2)c1 [Example 11, 3-methoxy-N-[4-methyl-3-(9H-pyrimido[4,5-b]indol-7-yl)-phenyl]benzamide] | 6.00 to 6.30 | < 6.00 | ≥ 6.30 | ≥ 6.30 | ≤ 500 |
| Cc1ccc(NC(=O)c2ccccc2C(F)(F)F)cc1-c1ccc2c(c1)[nH]c1ncncc12 [Example 12, N-[4-methyl-3-(9H-pyrimido-[4,5-b]indol-7-yl)phenyl]-2-(trifluoromethyl)benzamide] | < 6.00 | < 6.00 | ≥ 6.30 | ≥ 6.30 | 500 to 1000 |
| O=C(Nc1ccc(F)c(-c2ccc3c(c2)[nH]c2ncncc23)c1)c1cccc(C(F)(F)F)c1 [Example 13, N-[4-fluoro-3-(9H-pyrimido-[4,5-b]indol-7-yl)phenyl]-3-(trifluoromethyl)benzamide] | ≥ 6.30 | ≥ 6.30 | ≥ 6.30 | ≥ 6.30 | ≤ 500 |
| O=C(Nc1cccc(-c2ccc3c(c2)[nH]c2ncncc23)c1)c1cccc(C(F)(F)F)c1 [Example 14, N-[3-(9H-pyrimido[4,5-b]-indol-7-yl)phenyl]-3-(trifluoro-methyl)benzamide] | ≥ 6.30 | < 6.00 | ≥ 6.30 | < 6.00 | 500 to 1000 |
| Cc1ccc(NC(=O)c2cccc(Cl)c2)cc1-c1ccc2c(c1)[nH]c1ncncc12 [Example 15, 3-chloro-N-[4-methyl-3-(9H-pyrimido[4,5-b]indol-7-yl)-phenyl]benzamide] | ≥ 6.30 | ≥ 6.30 | ≥ 6.30 | ≥ 6.30 | ≤ 500 |
| Cc1ccc(NC(=O)c2cccc(S(F)(F)(F)(F)F)c2)cc1-c1ccc2c(c1)[nH]c1ncncc12 [Example 16, N-[4-methyl-3-(9H-pyrimido-[4,5-b]indol-7-yl)phenyl]-3-(pentafluoro-λ(6)-sulfanyl)-benzamide] | ≥ 6.30 | 6.00 to 6.30 | ≥ 6.30 | ≥ 6.30 | ≤ 500 |
| Cc1ccc(NC(=O)c2cc(F)cc(C(F)(F)F)c2)cc1-c1ccc2c(c1)[nH]c1ncncc12 [Example 19, 3-Fluoro-N-[4-methyl-3-(9H-pyrimido[4,5-b]indol-7-yl)phenyl]-5-(trifluoro-methyl)benzamide] | ≥ 6.30 | ≥ 6.30 | ≥ 6.30 | ≥ 6.30 | ≤ 500 |
| Cc1ccc(NC(=O)c2cc(N3CCNCC3)cc(C(F)(F)F)c2)cc1-c1ccc2c(c1)[nH]c1ncncc12 [Example 28, N-[4-methyl-3-(9H-pyrimido-[4,5-b]indol-7-yl)phenyl]-3-piperazin-1-yl-5-(trifluoro-methyl)benzamide] | ≥ 6.30 | 6.00 to 6.30 | ≥ 6.30 | ≥ 6.30 | ≤ 500 |
| Cc1ccc(NC(=O)c2cc(NCCN(C)C)cc(C(F)(F)F)c2)cc1-c1ccc2c(c1)[nH]c1ncncc12 [Example 38, 3-{[2-(dimethylamino)ethyl]-amino}-N-[4-methyl-3-(9H-pyrimido [4,5-b]indol-7-yl)-phenyl]-5-(trifluoromethyl) benzamide] | ≥ 6.30 | 6.00 to 6.30 | ≥ 6.30 | ≥ 6.30 | ≤ 500 |
| Cc1ccc(NC(=O)c2ccc(F)c(C(F)(F)F)c2)cc1-c1ccc2[nH]c3ncncc3c2c1 [Example 42, 4-fluoro-N-[4-methyl-3-(9H-pyrimido[4,5-b]indol-6-yl)-phenyl]-3-(trifluoromethyl)-benzamide] | ≥ 6.30 | < 6.00 | ≥ 6.30 | 6.00 to 6.30 | ≤ 500 |
| Cc1ccc(NC(=O)c2cc(F)cc(C(F)(F)F)c2)cc1-c1ccc2[nH]c3ncncc3c2c1 [Example 43, 3-fluoro-N-[4-methyl-3-(9H-pyrimido[4,5-b]indol-6-yl)-phenyl]-5-(trifluoromethyl)-benzamide] | ≥ 6.30 | 6.00 to 6.30 | < 6.00 | ≥ 6.30 | ≤ 500 |
| Cc1ncc(NC(=O)c2cc(NCCN(C)C)cc(C(F)(F)F)c2)cc1-c1ccc2c(c1)[nH]c1ncncc12 [Example 76, 3-[2-(dimethylamino)ethyl]amino-N-[6-methyl-5-(9H-pyrimido[4,5-b]indol-7-yl)pyridin-3-yl]-5-(trifluoromethyl)benzamide tris(trifluoroacetate)] | ≥ 6.30 |  | ≥ 6.30 | ≥ 6.30 | ≤ 500 |
| Cc1ncc(NC(=O)c2cc(NCCCN(C)C)cc(C(F)(F)F)c2)cc1-c1ccc2c(c1)[nH]c1ncncc12 [Example 77, 3-[3-(dimethylamino)propyl]amino-N-[6-methyl-5-(9H-pyrimido[4,5-b]indol-7-yl)pyridin-3-yl]-5-(trifluoromethyl)benzamide tris(trifluoroacetate)] | ≥ 6.30 |  | ≥ 6.30 | ≥ 6.30 | ≤ 500 |
